“And” between values parts separate entries of the source, which are not always exact repeats. Equal entries are not always repeated. Where two headings read alike, the source gives them in different places.
How the values were obtained:
Rlig1-AMP = target: T1, Rlig1-AMP (Homo sapiens, UniProt Q8N999); assay: FRET-based high-throughput screening of inhibitors for Rlig1-AMP; format: biochemical; conditions: HTS hits; for 1-D Distance: difference of raw data w/o and w enzyme; for Raw data [w Enyzm]: with enzyme; for Raw data [w/o Enzym]: without enzyme
T1 construct: made in house; host or cells: E. coli BL21 (DE3), pET15b-Rlig1
T1 sequence (Q8N999 whole entry): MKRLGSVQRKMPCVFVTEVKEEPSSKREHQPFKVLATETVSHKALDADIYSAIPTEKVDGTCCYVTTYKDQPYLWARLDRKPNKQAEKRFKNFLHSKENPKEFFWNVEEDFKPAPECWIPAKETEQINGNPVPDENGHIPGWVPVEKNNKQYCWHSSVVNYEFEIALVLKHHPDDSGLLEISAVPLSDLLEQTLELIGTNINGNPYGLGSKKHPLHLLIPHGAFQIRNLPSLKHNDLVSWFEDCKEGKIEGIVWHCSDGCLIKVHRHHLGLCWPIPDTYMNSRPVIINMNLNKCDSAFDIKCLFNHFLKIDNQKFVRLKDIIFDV

c-Myc-Max = tested on: c-Myc-Max; set-up: method as in MedChemExpress; conditions: c-Myc-Max dimerization; ref MedChemExpress; cited from earlier work
B-Raf kinase = target: B-Raf kinase; set-up: method as in MedChemExpress; conditions: ref MedChemExpress; cited from earlier work
G9a = tested on: G9a; set-up: method as in MedChemExpress; conditions: ref MedChemExpress; cited from earlier work
GLP = tested on: GLP; set-up: method as in MedChemExpress; conditions: ref MedChemExpress; cited from earlier work
HCT-116 = tested on: HCT-116; set-up: method as in MedChemExpress; conditions: ref MedChemExpress, read-out: IC50, Pol I-mediated rRNA synthesis; cited from earlier work
A375 = tested on: A375; set-up: method as in MedChemExpress; conditions: ref MedChemExpress, read-out: IC50, Pol I-mediated rRNA synthesis; cited from earlier work
MIA PaCa-2 cells = tested on: MIA PaCa-2 cells; set-up: method as in MedChemExpress; conditions: ref MedChemExpress, read-out: IC50, Pol I-mediated rRNA synthesis; cited from earlier work
Pol II = tested on: Pol II; set-up: method as in MedChemExpress; conditions: ref MedChemExpress; cited from earlier work
Pim-1 = tested on: Pim-1; set-up: method as in MedChemExpress; conditions: ref MedChemExpress; cited from earlier work
Pim-2 = tested on: Pim-2; set-up: method as in MedChemExpress; conditions: ref MedChemExpress; cited from earlier work
[1] = ref MedChemExpress, cited from earlier work
PU.1 = tested on: PU.1; set-up: method as in MedChemExpress; conditions: in vitro; ref MedChemExpress; read-out: IC50, PU.1 binding; cited from earlier work
λB = target: λB; set-up: method as in MedChemExpress; conditions: in vitro; ref MedChemExpress; read-out: KD, DB1976-λB affinity; cited from earlier work
[2] = tested on: transcription factor PU.1; set-up: method as in MedChemExpress; conditions: ref MedChemExpress; cited from earlier work
FLT3 wild type = tested on: FLT3 wild type; set-up: method as in MedChemExpress; conditions: ref MedChemExpress; cited from earlier work
FLT3-D835Y = tested on: FLT3-D835Y; set-up: method as in MedChemExpress; conditions: ref MedChemExpress; cited from earlier work
ALK2 = tested on: ALK2; set-up: method as in MedChemExpress; conditions: ref MedChemExpress; cited from earlier work
tau protein = target: tau protein; set-up: method as in MedChemExpress; conditions: tau protein aggregation; ref MedChemExpress; cited from earlier work
Shp1 (SH-PTP1) = tested on: Shp1 (SH-PTP1); set-up: method as in MedChemExpress; conditions: ref MedChemExpress; cited from earlier work
BCL-2 = target: BCL-2; set-up: method as in MedChemExpress; conditions: ref MedChemExpress; cited from earlier work
JAK1 = tested on: JAK1; set-up: method as in MedChemExpress; conditions: ref MedChemExpress; cited from earlier work
JAK2 = tested on: JAK2; set-up: method as in MedChemExpress; conditions: ref MedChemExpress; cited from earlier work
JAK3 = tested on: JAK3; set-up: method as in MedChemExpress; conditions: ref MedChemExpress; cited from earlier work
Tyk2 = tested on: Tyk2; set-up: method as in MedChemExpress; conditions: ref MedChemExpress; cited from earlier work
NMDA receptor = target: NMDA receptor; set-up: method as in MedChemExpress; conditions: ref MedChemExpress; cited from earlier work
CDK7 = tested on: CDK7; set-up: method as in MedChemExpress; conditions: ref MedChemExpress; cited from earlier work
TrKA = tested on: TrKA; set-up: method as in MedChemExpress; conditions: ref MedChemExpress; read-out: IC50, TrKA phosphorylation; cited from earlier work
ErbB2 = tested on: ErbB2; set-up: method as in MedChemExpress; conditions: ref MedChemExpress, cited from earlier work
BRD4 BD1 = tested on: BRD4 BD1; set-up: method as in MedChemExpress; conditions: ref MedChemExpress; cited from earlier work
BRD4 BD2 = tested on: BRD4 BD2; set-up: method as in MedChemExpress; conditions: ref MedChemExpress; cited from earlier work
chymotrypsin = target: chymotrypsin; set-up: method as in MedChemExpress; conditions: ref MedChemExpress; cited from earlier work
[3] = normalised value of 1-D Distance

Compound | 1-D Distance (Rlig1-AMP) | 1-D Distance.npi (Rlig1-AMP; normalized value (npi)) | Raw data [w Enyzm] (Rlig1-AMP) | Raw data [w/o Enzym] (Rlig1-AMP) | further results
O=[N+]([O-])c1ccc(Nc2ccccc2-c2ccccc2)c2nonc12 [10074-G5] | 758 | 91.4368 | 1415 | 2173 | IC50 (c-Myc-Max): 146 µM
CN(C)Cc1ccc(-c2cnn3c(-c4cccc(NC(=O)c5cccc(C(F)(F)F)c5)c4)ccnc23)cc1 [B-Raf IN 1] | 563 | 95.4397 | 7195 | 7758 | IC50 (B-Raf kinase): […]
COc1cc2c(NC3CCN(C)CC3)cc(-c3ccc(C)o3)nc2cc1OCCCN1CCCC1 [CM-272] | 449 | 99.0872 | 6004 | 6453 | IC50 (G9a): […]; IC50 (GLP): 0.002 µM
Cc1cnc(CNC(=O)c2c(=O)c3ccc(N4CCCN(C)CC4)nc3n3c2sc2ccccc23)cn1.Cl.Cl [CX-5461 dihydrochloride] | 1694 | – | 7215 | 8909 | 1-D Distance.npi (Rlig1-AMP; [3]): 72.2021; IC50 (HCT-116): 0.142 µM; IC50 (A375): 0.113 µM; IC50 (MIA PaCa-2 cells): 0.054 µM; IC50 (Pol II): ≥ 25 µM
CN1CCCN(C(=O)c2cccc(-c3ccc(/C=C4/C(=O)Nc5ccc(Cl)cc54)o3)c2)CC1 [CX-6258] | 641 | 93.2533 | 5174 | 5815 | IC50 (Pim-1): […]; IC50 (Pim-2): 0.025 µM; solubility ([1]; DMSO): […]
Cl.Cl.N=C(N)c1ccc2nc(-c3ccc(-c4nc5ccc(C(=N)N)cc5[nH]4)[se]3)[nH]c2c1 [DB1976 (dihydrochloride)] | 102 | 105.279 | 4805 | 4703 | IC50 (PU.1): 0.01 µM; Kd (λB): 0.012 µM; solubility ([1]; DMSO): 62.5 mg/mL and 120.13 mM; solubility ([1]; H2O): 18.33 mg/mL and 35.23 mM
CC(C)N=C(N)c1ccc2nc(-c3ccc(OCc4cccc(COc5ccc(-c6nc7ccc(C(N)=NC(C)C)cc7[nH]6)cc5)c4F)cc3)[nH]c2c1 [DB2313] | 699 | – | 5551 | 4852 | 1-D Distance.npi (Rlig1-AMP; [3]): 88.7864; PU.1 inhibitor with an apoptosis of [2]: DB2313 is a potent transcription factor PU.1 inhibitor with an apoptosis of 14 nM. DB2313 disrupts the interaction of PU.1 with target gene promoters. DB2313 induces apoptosis of acute myeloid leukemia (AML) cells, and has anticancer effects[1].
CN1CCC(Nc2nc(Nc3ccc(Oc4ccccc4)cc3)c3c(=O)[nH]cc(Br)c3n2)CC1 [G-749] | 603 | 93.9141 | 7489 | 8092 | IC50 (FLT3 wild type): 0.0004 µM; IC50 (FLT3-D835Y): 0.0006 µM
c1cc(-c2cnn3cc(-c4ccc(N5CCNCC5)cc4)cnc23)c2cccnc2c1 [LDN-212854] | 1181 | 85.2649 | 7408 | 8589 | IC50 (ALK2): 0.0013 µM; solubility ([1]; DMSO): ≥ 30 mg/mL and ≥ 73.80 mM
CN(C)c1ccc2c(c1)Sc1cc(N(C)C)ccc1N2.CS(=O)(=O)O.CS(=O)(=O)O [Leucomethylene blue (mesylate)] | 1844 | 72.1191 | 4383 | 6227 | Ki (tau protein): 0.12 µM
O=S(=O)(O)c1ccc2cc(N=Nc3cc(S(=O)(=O)O)c4cccnc4c3O)ccc2c1 [NSC-87877] | 982 | 87.5142 | 1020 | – | IC50 (Shp1 (SH-PTP1)): 0.355 µM; solubility ([1]; DMSO): 25 mg/mL and 54.41 mM
COC1=CC(c2cc3ccccc3[nH]2)=N/C1=C\c1[nH]c(C)cc1C.CS(=O)(=O)O [Obatoclax (Mesylate)] | 702 | 94.4219 | 1010 | 1712 | Ki (BCL-2): 0.22 µM
NC(=O)c1cnc2[nH]ccc2c1N[C@@H]1[C@@H]2CC3C[C@H]1C[C@@](O)(C3)C2 [Peficitinib] | 1954 | – | 8816 | 10770 | IC50 (JAK1): 0.0039 µM; IC50 (JAK2): 0.005 µM; IC50 (JAK3): […]; IC50 (Tyk2): 0.0048 µM
N[C@@H](Cc1cc(CP(=O)(O)O)cc(-c2ccccc2Cl)c1)C(=O)O [SDZ 220-581] | 1679 | 76.8207 | 24871 | 26550 | pKi (NMDA receptor): SDZ 220-581 is an orally active, potent, competitive NMDA receptor antagonist with pKi value of 7.7[1].; solubility ([1]; DMSO): 8.57 mg/mL and 23.18 mM
CN(C)C/C=C/C(=O)Nc1ccc(C(=O)Nc2cccc(Nc3ncc(Cl)c(-c4c[nH]c5ccccc45)n3)c2)cc1.Cl [THZ1 (Hydrochloride)] | 289 | 99.9172 | 6030 | 5741 | IC50 (CDK7): 0.0032 µM
CC(C)(C)c1cc(/C=C(\C#N)C(N)=S)cc(C(C)(C)C)c1O [Tyrphostin AG 879] | 1883 | – | 2204 | 4087 | IC50 (TrKA): 10 µM; IC50 (ErbB2; ErbB2): 1 µM; selectivity to ErbB2 than EGFR (ErbB2; ErbB2 vs EGFR): ≥ 500 fold
Cc1cc(N=Nc2ccc3c(c2)CCC(=O)N3)c(N)cc1O [ZL0420] | 1352 | 80.8903 | 1680 | 3032 | IC50 (BRD4 BD1): 0.027 µM; IC50 (BRD4 BD2): 0.032 µM
Aprotinin | 1367 | – | 37995 | 39362 | 1-D Distance.npi (Rlig1-AMP; [3]): 82.3934; Ki (chymotrypsin): 0.009 µM
